Experimental data taken from PMC12040169 (PLOS Biology, 2025).

Experiment: in vitro
Conditions: human, hela cells, % viability

SMILES | viability at 28.5 h, 10 µM | viability at 28.5 h, 10 µM (bulk resorufin, single well)
O=C(CN1CCCCC1)Nc1ccc(NC(=O)CN2CCCCC2)cc1 [CBK265421] | 86.3% | 
CCC1CCc2c(sc(NC(=O)C3C4CCC(C4=C(C)C)C3C(=O)O)c2C(=O)OC)C1 (stereo not shown) [CBK265424] | 102% | 
Cc1ccc(N(Cc2cc3cccc(C)c3nc2O)C(=O)c2cccc([N+](=O)[O-])c2)cc1 [CBK265426] | 98.2% | 
CCOc1ccc(N(Cc2cc3cc(C)ccc3nc2O)C(=O)c2ccccc2OC)cc1 [CBK265427] | 103% | 
CC1=C(C)CC(C(=O)Nc2sc3c(c2C(=O)OC(C)C)CCCC3)C(C(=O)O)C1 (stereo not shown) [CBK265428] | 87% | 
Cc1noc(NS(=O)(=O)c2ccc(NC(=O)/C=C/c3ccc(C(C)C)cc3)cc2)c1C [CBK265430] | 89.2% | 
COc1cc(/C=C2\C(=O)NC(=O)N(c3ccc([N+](=O)[O-])cc3)C2=O)cc(Cl)c1OCC(=O)O [CBK265431] |  | 98.3%
Cc1ccc(S(=O)(=O)N2CCN(c3ccc([N+](=O)[O-])c(NCCN4CCOCC4)c3)CC2)cc1 [CBK265432] | 102% | 
CN1CCN(C2CC(=O)N(c3ccc(Oc4ccccc4)cc3)C2=O)CC1 (stereo not shown) [CBK265434] | 103% | 
O=C(CCCc1ccccc1)Nc1scc2c(=O)oc3ccccc3c12 [CBK265435] | 90.1% | 
O=C(O)COc1ccccc1/C=C1\C(=O)NC(=O)N(c2ccc(O)cc2)C1=O [CBK265436] |  | 85.2%
COC(=O)COc1ccc(C(NC(=O)c2ccccc2)C(Cl)(Cl)Cl)cc1 (stereo not shown) [CBK265437] | 97.8% | 
CCOC(=O)c1c(NC(=O)C2C3CCC(C3=C(C)C)C2C(=O)O)sc2c1CCCCC2 (stereo not shown) [CBK265439] | 106% | 
O=C(C1CCCN(C2CCN(Cc3ccccc3)CC2)C1)N1CCN(c2ccccc2)CC1 (stereo not shown) [CBK265440G] | 113% | 
Cc1cc(Cl)ccc1OC(C)C(=O)NCc1ccccn1 (stereo not shown) [CBK265441] | 98.8% | 
Cc1ccc(N(Cc2cc3ccccc3nc2O)C(=O)c2cccnc2)cc1 [CBK265442] | 85.5% | 
CC(CNC(=O)C(C)(C)C)NC(=O)C(C)(C)C (stereo not shown) [CBK265443] | 93.6% | 
O=C(CCCc1ccccc1)Nc1ccc(F)cc1[N+](=O)[O-] [CBK265446] | 99.9% | 
COc1ccc(NC(=O)CCC(=O)O)c(OC)c1 [CBK265451] | 104% | 
COC(=O)c1c(NC(=O)COc2ccccc2Cl)sc2c1CCC(c1ccccc1)C2 (stereo not shown) [CBK265456] | 90.3% | 
O=C(NCCCn1ccnc1)Nc1cccc(Cl)c1 [CBK265458] | 93.9% | 
O=C(O)C1CC=CCC1C(=O)NCCCCc1ccccc1 (stereo not shown) [CBK265460] | 98.7% | 
Cc1ccc(S(=O)(=O)NCCN2CCN(S(=O)(=O)c3ccc(C)cc3)CC2)cc1 [CBK265461] | 115% | 
O=C(O)CCC(=O)NCCCc1ccccc1 [CBK265465] | 86.7% | 
CC1CCc2c(sc(NC(=O)c3cnccn3)c2C(N)=O)C1 (stereo not shown) [CBK265466] | 90.7% | 
CC1CCN(CCN2CCn3c2nc2ccccc23)CC1 [CBK265467B] | 80% | 

SMILES | viability at 28.5 h, 10 µM | viability at 28.5 h, 10 µM (bulk resorufin, single well)
CCOC(=O)c1c(NC(=O)C2CCCCC2C(=O)O)sc(C)c1C (stereo not shown) [CBK265469] | 99.2% | 
O=C(NCCCN1CCOCC1)c1cc(Cl)ccc1[N+](=O)[O-] [CBK265470] | 108% | 
CCCOC(=O)c1c(NC(=O)C2C3C=CC(C3)C2C(=O)O)sc2c1CCC(C)C2 (stereo not shown) [CBK265473] | 87.5% | 
Cc1cc(NS(=O)(=O)c2ccc(NC(=O)/C=C/c3ccc(C)o3)cc2)nc(C)n1 [CBK265474] | 96.5% | 
O=C(NCCCn1ccnc1)c1cc(-c2cccc(Br)c2)nc2ccccc12 [CBK265476] | 91.4% | 
CC(Oc1cccc(Cl)c1)C(=O)NCc1ccc(S(N)(=O)=O)cc1 (stereo not shown) [CBK265477] | 97% | 
COc1ccc(N2CCN(c3nc(NCCO)nc(OC)n3)CC2)cc1 [CBK265478] | 103% | 
CC(Nc1cc(N2CCN(S(=O)(=O)N(C)C)CC2)ccc1[N+](=O)[O-])C12CC3CC(CC(C3)C1)C2 (stereo not shown) [CBK265479] | 115% | 
O=C(O)C1CC=CCC1C(=O)NCc1ccncc1 (stereo not shown) [CBK265481] | 89.2% | 
CCOC(=O)Cn1nc(-c2nonc2N)nc1-c1nonc1N [CBK265482] | 88.5% | 
COc1ccc(/C=C/C(=O)NCc2ccc(S(N)(=O)=O)cc2)cc1OC [CBK265483] | 91% | 
O=C1NC(=O)N(c2cccc([N+](=O)[O-])c2)C(=O)/C1=C\c1ccccc1OCc1ccc(C(=O)O)cc1 [CBK265484] |  | 106%
Cc1ccc(C)c(NC(CC(=O)c2ccccc2)C(=O)O)c1 (stereo not shown) [CBK265485] | 102% | 
COc1ccc(CCNC(=O)c2cc(-c3ccc(C)o3)nc3ccccc23)cc1OC [CBK265486] | 117% | 
CC(Oc1ccc(Cl)cc1Cl)C(=O)NCCc1cccc(Cl)c1 (stereo not shown) [CBK265489] | 84.2% | 
O=C(/C=C/c1c(Cl)cccc1Cl)Nc1ccc(S(=O)(=O)Nc2ncccn2)cc1 [CBK265490] | 98.8% | 
Cc1ccc(C)c(C(=O)C2=C(O)C(=O)N(CCCN3CCOCC3)C2c2ccncc2)c1 (stereo not shown) [CBK265492] | 103% | 
O=C(CSc1ccccc1[N+](=O)[O-])Oc1ccccc1 [CBK265501] | 106% | 
O=S(=O)(c1ccc(-c2csc(-c3ccccc3)n2)cc1)N1CCCCCC1 [CBK265504] | 84.9% | 
Cc1nc2ccccc2c2c1C(=O)N(c1cccc(C(=O)OCC(=O)c3ccccc3Cl)c1)C2=O [CBK265505] | 98.5% | 
CC(Oc1ccc(F)cc1)C(=O)NCCN1CCOCC1 (stereo not shown) [CBK265508] | 99.4% | 
COc1ccc(-c2cc(C(=O)OCC(=O)c3cccc4ccccc34)c3ccccc3n2)cc1 [CBK265513] | 96.7% | 
COc1ccc(N2C(=O)c3ccc(C(=O)OCC(=O)c4ccccc4Cl)cc3C2=O)c([N+](=O)[O-])c1 [CBK265514] | 83.7% | 
Cc1ccc(C(=O)C(OC(=O)c2cc(O)nc3ccccc23)c2ccccc2)cc1C (stereo not shown) [CBK265515] | 90.9% | 
O=C(CCCc1ccccc1)Nc1ccccc1C(=O)O [CBK265516] | 97.4% | 
O=C(NCCc1ccccc1)c1c(NC(=O)C2COc3ccccc3O2)sc2c1CCCC2 (stereo not shown) [CBK265522] | 89.8% | 

SMILES | viability at 28.5 h, 10 µM | viability at 28.5 h, 10 µM (bulk resorufin, single well)
Cc1c(NC(=O)CCCC(=O)O)cccc1C(=O)O [CBK265525] | 95% | 
CCCCOC(=O)c1ccc(N2C(=O)CC(N3CCN(c4ccc(F)cc4)CC3)C2=O)cc1 (stereo not shown) [CBK265527] | 94.6% | 
c1ccc(-n2ncc3c(NCc4cccnc4)ncnc32)cc1 [CBK265528] | 85.2% | 
CCCC12CN3CC(CCC)(CN(C1)C3C(O)C(O)C(O)CO)C2=O (stereo not shown) [CBK265529] | 88.3% | 
CCCC12CN3CC(CCC)(CN(C1)C3c1ccc(O)c(OC)c1)C2=O (stereo not shown) [CBK265531] | 89% | 
COc1cc(/N=C(\N)Nc2nc(=O)cc(CSc3ccc(C)cc3)[nH]2)cc(OC)c1 [CBK265532] | 83.4% | 
CC1(CC(=O)Nc2ccccc2)NC(=S)N(c2ccccc2)N1 (stereo not shown) [CBK265534] | 105% | 
CCOC(=O)c1c(NC(=O)CN2CCN(c3ccc(F)cc3)CC2)sc2c1CCCC2 [CBK265536] | 88.3% | 
O=C1N(CN2CCN(C(c3ccccc3)c3ccccc3)CC2)c2ccccc2C12OCCCO2 [CBK265538] | 85.6% | 
O=c1ccc(O)nn1CN1CCN(Cc2ccccc2)CC1 [CBK265539] | 91.5% | 
COc1cccc(C(=O)Oc2ccc3c(=O)c(-c4nc5ccccc5s4)c(C)oc3c2)c1 [CBK265540] | 103% | 
CCOc1cccc(N2C(=O)NC(=O)/C(=C/NCCc3c[nH]c4ccccc34)C2=O)c1 [CBK265541] |  | 106%
NC(=O)c1c(NC(=S)NC(=O)c2ccccc2Br)sc2c1CCC2 [CBK265543] | 89.3% | 
FC(F)(F)C1(NC2(C(Cl)(Cl)Cl)Oc3ccccc3O2)Oc2ccccc2O1 [CBK265544] | 90.5% | 
COc1ccc(/C=C2/SC(=O)N(CCNC3=NS(=O)(=O)c4ccccc43)C2=O)cc1 [CBK265545] | 83.4% | 
CCC12CN3CC(CC)(CN(C1)C3c1c(C)[nH]c3ccccc13)C2=O (stereo not shown) [CBK265547] | 89.4% | 
COc1ccc(S(=O)(=O)N2CCOCC2)cc1C(=O)Nc1ccc2c(c1)OCO2 [CBK265548] | 102% | 
O=C1N/C(=N/c2cccc(O)c2)S/C1=C1\C(=O)Nc2ccccc21 [CBK265549] | 99.6% | 
O=C(NC(Cc1ccccc1)N1C(=O)c2ccccc2C1=O)N1CCCc2ccccc21 (stereo not shown) [CBK265551] | 111% | 
O=C(O)C1CC(=O)N(CCc2ccccc2)/C(=N/CCc2ccccc2)S1 (stereo not shown) [CBK265558] | 89.2% | 
Cc1nnc(SCc2ccc(CSc3nnc(C)n3N)cc2)n1N [CBK265561] | 106% | 
Cc1ccc(NC(=O)COC(=O)CCc2c[nH]c(O)n2)cc1 [CBK265562] | 89.9% | 
Cc1ccc(NC(=O)CCSc2nnc3ccccn23)cc1 [CBK265563] | 93.7% | 
COc1ccc(CCN2C(=O)/C(=C\c3c(NCCO)nc4c(C)cccn4c3=O)SC2=S)cc1 [CBK265566] | 79.9% | 
